Key:
[1] = Inhibition of ACE (unknown origin); design: species or system Homo sapiens
[2] = target: T1, Neuropeptide Y receptor type 4 (Homo sapiens, UniProt P50391); assay: Intrinsic activity at human neuropeptide Y Y4 receptor expressed in CHO-mtAEQ cells co-expressing Gqi5 by calcium aequorin assay; assay type: functional, cell-based
[3] = Stability of the compound in pH 7.4 PBS buffer measured up to 48 hrs by reversed-phase HPLC analysis; assay type: physicochemical; conditions: pH 7.4, 48 h
[4] = target: T1, Neuropeptide Y receptor type 4; assay: Agonist activity at human neuropeptide Y Y4 receptor expressed in CHO-mtAEQ cells co-expressing Gqi5 by calcium aequorin assay; assay type: functional, cell-based
[5] = target: T2, Neuropeptide Y receptor type 5 (Homo sapiens, UniProt Q15761); assay: Displacement of [3H]propionyl-pNPY from human neuropeptide Y Y5 receptor in human HEC-1B cells measured after 90 mins by scintillation counting analysis; assay type: cell-based, HEC-1B cell line
T2 sequence (Q15761 whole entry): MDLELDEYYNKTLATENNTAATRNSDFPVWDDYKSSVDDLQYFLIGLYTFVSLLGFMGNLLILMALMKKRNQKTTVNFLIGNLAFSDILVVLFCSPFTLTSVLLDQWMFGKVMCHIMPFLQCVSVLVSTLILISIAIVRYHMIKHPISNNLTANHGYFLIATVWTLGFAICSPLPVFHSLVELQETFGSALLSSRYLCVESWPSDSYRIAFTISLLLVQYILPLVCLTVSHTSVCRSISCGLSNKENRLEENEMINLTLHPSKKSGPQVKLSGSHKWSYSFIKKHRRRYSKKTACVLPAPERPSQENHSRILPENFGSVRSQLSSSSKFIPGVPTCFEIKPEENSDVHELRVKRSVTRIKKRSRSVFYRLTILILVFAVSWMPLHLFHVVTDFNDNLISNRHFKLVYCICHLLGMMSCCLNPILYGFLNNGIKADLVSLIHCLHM

[6] = target: T1, Neuropeptide Y receptor type 4; assay: Intrinsic activity at human neuropeptide Y Y4 receptor expressed in HEK293T cells co-expressing CRE-controlled gene reporter firefly luciferase assessed as relative luminescence measured after 15 mins relative to hPP; assay type: functional, cell-based
[7] = target: T1, Neuropeptide Y receptor type 4; assay: Intrinsic activity at human neuropeptide Y Y4 receptor expressed in HEK293T-ARRB1 cells assessed as stimulation of beta-arrestin 1 recruitment by multimode plate reader relative to hPP; assay type: functional, cell-based
Homo sapiens [8] = species: Homo sapiens; assay: (§1) Selectivity ratio, Ki for displacement of [3H]UR-MK299 from human neuropeptide Y Y1 receptor in human SK-N-MC cells measured after 90 mins by scintillation counting analysis to Ki for displacement of [3H]UR-KK200 from human neuropeptide Y Y4 receptor expressed in CHO-mtAEQ cells co-expressing Gqi5 measured after 90 mins by scintillation counting analysis; assay type: cell-based
[9] = Stability in human plasma assessed as half life at 37 degC by RP-HPLC analysis; assay type: ADME, cell-free
[10] = target: T1, Neuropeptide Y receptor type 4; assay: Agonist activity at human neuropeptide Y Y4 receptor expressed in HEK293T cells co-expressing CRE-controlled gene reporter firefly luciferase assessed as relative luminescence measured after 15 mins; assay type: functional, cell-based
[11] = target: T1, Neuropeptide Y receptor type 4; assay: Intrinsic activity at human neuropeptide Y Y4 receptor expressed in HEK293T-ARRB2 cells assessed as stimulation of beta-arrestin 2 recruitment by multimode plate reader relative to hPP; assay type: functional, cell-based
[12] = target: T1, Neuropeptide Y receptor type 4; assay: Agonist activity at human neuropeptide Y Y4 receptor expressed in HEK293T-ARRB2 cells assessed as stimulation of beta-arrestin 2 recruitment by multimode plate reader; assay type: functional, cell-based
[13] = target: T3, Neuropeptide Y receptor type 1 (Homo sapiens, UniProt P25929); assay: Displacement of [3H]UR-MK299 from human neuropeptide Y Y1 receptor in human SK-N-MC cells measured after 90 mins by scintillation counting analysis; assay type: cell-based
T3 sequence (P25929 whole entry): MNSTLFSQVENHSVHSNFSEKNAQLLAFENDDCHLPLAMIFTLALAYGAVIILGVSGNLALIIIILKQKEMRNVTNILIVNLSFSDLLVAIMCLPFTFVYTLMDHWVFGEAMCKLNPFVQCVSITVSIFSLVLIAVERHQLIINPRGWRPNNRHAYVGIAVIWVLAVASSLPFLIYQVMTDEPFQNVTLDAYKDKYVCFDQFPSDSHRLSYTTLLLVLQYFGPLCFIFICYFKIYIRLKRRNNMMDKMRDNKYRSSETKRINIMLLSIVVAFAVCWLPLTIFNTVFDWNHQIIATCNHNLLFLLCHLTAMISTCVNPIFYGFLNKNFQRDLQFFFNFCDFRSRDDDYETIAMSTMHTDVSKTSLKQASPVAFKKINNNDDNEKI

[14] = Stability in human plasma assessed as intact peptide measured after 1 hr at 37 degC by RP-HPLC analysis; assay type: ADME, cell-free; conditions: read-out: Stability
Homo sapiens [15] = species: Homo sapiens; assay: as §1, with “[3H]propionyl-pNPY” for “[3H]UR-MK299”, “Y5” for “Y1”, “HEC-1B” for “SK-N-MC”; assay type: cell-based
[16] = target: T4, Neuropeptide Y receptor type 2 (Homo sapiens, UniProt P49146); assay: Displacement of [3H]UR-MK299 from human neuropeptide Y Y2 receptor expressed in CHO cells measured after 90 mins by scintillation counting analysis; assay type: cell-based
T4 sequence (P49146 whole entry): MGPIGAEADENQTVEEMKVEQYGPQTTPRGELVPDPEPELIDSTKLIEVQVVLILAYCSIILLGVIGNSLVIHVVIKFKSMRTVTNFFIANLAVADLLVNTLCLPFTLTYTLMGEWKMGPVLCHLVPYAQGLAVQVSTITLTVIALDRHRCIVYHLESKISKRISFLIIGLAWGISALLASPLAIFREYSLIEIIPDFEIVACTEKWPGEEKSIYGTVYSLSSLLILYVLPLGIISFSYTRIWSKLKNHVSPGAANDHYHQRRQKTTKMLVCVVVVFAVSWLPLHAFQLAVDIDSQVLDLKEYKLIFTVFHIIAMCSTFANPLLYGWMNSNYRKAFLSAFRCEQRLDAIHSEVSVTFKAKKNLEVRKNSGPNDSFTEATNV

Homo sapiens [17] = species: Homo sapiens; assay: Selectivity ratio, Ki for displacement of [3H]UR-MK299 from human neuropeptide Y Y2 receptor expressed in CHO cells measured after 90 mins by scintillation counting analysis to Ki for displacement of [3H]UR-KK200 from human neuropeptide Y Y4 receptor expressed in CHO-mtAEQ cells co-expressing Gqi5 measured after 90 mins by scintillation counting analysis; assay type: cell-based
[18] = target: T1, Neuropeptide Y receptor type 4; assay: Displacement of [3H]UR-KK200 from human neuropeptide Y Y4 receptor expressed in CHO-mtAEQ cells co-expressing Gqi5 assessed as fold change in affinity measured after 90 mins by scintillation counting analysis relative to Ac-Arg-Tyr-Arg-Leu-Arg-Tyr-NH2; assay type: cell-based; conditions: filed as agonist
[19] = Stability in human plasma assessed as intact peptide in presence of rami-pril measured at 50 uM after 24 hrs at 37 degC by LC-HRMS analysis; assay type: ADME, cell-free
[20] = target: T1, Neuropeptide Y receptor type 4; assay: Displacement of [3H]UR-KK200 from human neuropeptide Y Y4 receptor expressed in CHO-mtAEQ cells co-expressing Gqi5 measured after 90 mins by scintillation counting analysis; assay type: cell-based
[21] = target: T1, Neuropeptide Y receptor type 4; assay: Agonist activity at human neuropeptide Y Y4 receptor expressed in HEK293T-ARRB1 cells assessed as stimulation of beta-arrestin 1 recruitment by multimode plate reader; assay type: functional, cell-based; conditions: read-out: EC50
[22] = Stability in human plasma assessed as intact peptide measured after 30 mins at 37 degC by RP-HPLC analysis; assay type: ADME, cell-free; conditions: read-out: Stability
[23] = Stability in human plasma assessed as intact peptide measured after 6 hr at 37 degC by RP-HPLC analysis; assay type: ADME, cell-free; conditions: read-out: Stability
[24] = Stability in human plasma assessed as intact peptide measured after 2 hr at 37 degC by RP-HPLC analysis; assay type: ADME, cell-free; conditions: read-out: Stability
[25] = Stability in human plasma assessed as intact peptide measured after 24 hrs at 37 degC by RP-HPLC analysis; assay type: ADME, cell-free; conditions: read-out: Stability

T1 sequence (P50391 whole entry): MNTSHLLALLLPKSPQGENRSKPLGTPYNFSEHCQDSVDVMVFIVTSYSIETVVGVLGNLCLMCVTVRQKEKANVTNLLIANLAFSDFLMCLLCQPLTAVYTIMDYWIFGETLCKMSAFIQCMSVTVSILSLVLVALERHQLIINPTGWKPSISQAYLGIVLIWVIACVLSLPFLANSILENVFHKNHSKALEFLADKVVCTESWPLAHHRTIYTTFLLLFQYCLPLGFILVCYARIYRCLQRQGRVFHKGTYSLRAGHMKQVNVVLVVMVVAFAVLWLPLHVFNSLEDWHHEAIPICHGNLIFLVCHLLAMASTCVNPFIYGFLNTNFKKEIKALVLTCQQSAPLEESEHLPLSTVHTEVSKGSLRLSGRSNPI

Row | Compound | Intrinsic activity [2] [%] | EC50 [4] [nM] | Ki ([5]; read-out: pKi (converted)) [nM] | Intrinsic activity [6] [%] | Intrinsic activity [7] [%] | Selectivity ratio (Homo sapiens [8]) | half-life [9] [h] | Intrinsic activity [11] [%] | EC50 [12] [nM] | Ki ([13]; read-out: pKi (converted)) [nM] | Selectivity ratio (Homo sapiens [15]) | Ki ([16]; read-out: Ki) [nM] | Ki ([16]; read-out: pKi (converted)) [nM] | Selectivity ratio (Homo sapiens [17]) | fold change (FC) [18] | Stability [19] | Ki ([20]; read-out: Ki) [nM] | EC50 [21] [nM] | remaining at 0.5 h [22] [%] | remaining at 6 h [23] [%] | also measured
1 | CCOC(=O)[C@H](CCc1ccccc1)N[C@@H](C)C(=O)N1[C@H](C(=O)O)C[C@@H]2CCC[C@@H]21 |  |  |  |  |  |  |  |  |  |  |  |  |  |  |  |  |  |  |  |  | pIC50 [1]: 7.6
2 | CC(C)C[C@H](NC(=O)[C@@H]1CCCNC(=N)NC(=O)NCCCCNC(=O)CCC(=O)N[C@@H](CCCNC(=N)N)C(=O)N[C@@H](Cc2c[nH]c3ccccc23)C(=O)N1)C(=O)N[C@@H](CCCNC(=N)N)C(=O)N[C@@H](Cc1ccc(O)cc1)C(N)=O | 84 | 1 | > 1000 | 95 | 98 | > 300000 | 2.6 | 80 | 1.66 | > 10000 | > 90000 | > 10000 | > 10000 | > 300 | 103 | Stable | 0.033 | 1 | 94 | 19 | Stability [3]: Stable; Ki ([5]; read-out: Ki): > 3000 nM; EC50 [10]: 1.41 nM; Ki ([13]; sk-n-mc, read-out: Ki): > 10000 nM; remaining at 1 h [14]: 87%; remaining at 2 h [24]: 57%
3 | CC(C)C[C@H](NC(=O)[C@H](CCCNC(=N)NC(=O)NCCCCN)NC(=O)[C@H](Cc1c[nH]c2ccccc12)NC(=O)[C@H](CCCNC(=N)N)NC(=O)CCC(=O)O)C(=O)N[C@@H](CCCNC(=N)N)C(=O)N[C@@H](Cc1ccc(O)cc1)C(N)=O | 67 | 105 | > 10000 | 95 | 67 | > 4700 | 7.9 | 76 | 162 | > 10000 | > 4700 | > 3000 | > 3160 | > 1400 | 1.6 | Stable | 2.1 | 120 | 94 | 67 | remaining at 24 h [25]: 3%; EC50 [10]: 12 nM; Ki ([13]; sk-n-mc, read-out: Ki): > 10000 nM; Ki ([20]; read-out: pKi (converted)): 1.95 nM; remaining at 2 h [24]: 87%
4 | CC(C)C[C@H](NC(=O)[C@@H]1CCCNC(=N)NC(=O)NCCCCNC(=O)CCC(=O)N[C@@H](CCCNC(=N)N)C(=O)N[C@@H](Cc2ccc(O)cc2)C(=O)N1)C(=O)N[C@@H](CCCNC(=N)N)C(=O)N[C@@H](Cc1ccc(O)cc1)C(N)=O | 82 | 2.69 | > 1000 | 89 | 68 | > 60000 | 1.9 | 73 | 1.58 | > 3160 | > 60000 | > 10000 | > 10000 | > 200 | 71 | Stable | 0.048 | 3.6 | > 99 | 3 | Stability [3]: Stable; Ki ([5]; read-out: Ki): > 3000 nM; Ki ([13]; read-out: Ki): > 3000 nM; remaining at 1 h [14]: 85%; Ki ([20]; read-out: pKi (converted)): 0.0437 nM; remaining at 2 h [24]: 52%
5 | CC(C)C[C@H](NC(=O)[C@H](CCCNC(=N)NC(=O)NCCCCN)NC(=O)[C@H](Cc1ccc(O)cc1)NC(=O)[C@H](CCCNC(=N)N)NC(=O)CCC(=O)O)C(=O)N[C@@H](CCCNC(=N)N)C(=O)N[C@@H](Cc1ccc(O)cc1)C(N)=O | 70 | 204 | > 10000 | 88 | 75 | > 7600 | 5.9 | 83 | 141 | > 10000 | > 7600 | > 10000 | > 10000 | > 7600 | 2.6 | Stable | 13 | 160 | > 99 | 49 | remaining at 24 h [25]: 3%; EC50 [10]: 17 nM; Ki ([13]; sk-n-mc, read-out: Ki): > 10000 nM; Ki ([20]; read-out: pKi (converted)): 1.26 nM; remaining at 2 h [24]: 91%

— ChEMBL document CHEMBL4840359, “N-Terminus to Arginine Side-Chain Cyclization of Linear Peptidic Neuropeptide Y Y4 Receptor Ligands Results in Picomolar Binding Constants” (J Med Chem, 2021)
